Key:
Assay type in all cases: functional
Paramphistomum [1] = experiment: Antihelmintic activity against rumen flukes assessed as mortality at 40 ug/ml after 1 hr relative to control
Paramphistomum [2] = experiment: Antihelmintic activity against rumen flukes assessed as mortality at 80 ug/ml after 4 hrs relative to control
Paramphistomum [3] = experiment: Antihelmintic activity against rumen flukes assessed as mortality at 40 ug/ml after 6 hrs relative to control
Paramphistomum [4] = experiment: Antihelmintic activity against rumen flukes assessed as mortality at 80 ug/ml after 2 hrs relative to control
Paramphistomum [5] = experiment: Antihelmintic activity against rumen flukes assessed as mortality at 80 ug/ml after 1 hr relative to control
Paramphistomum [6] = experiment: Antihelmintic activity against rumen flukes assessed as mortality at 40 ug/ml after 4 hrs relative to control
Paramphistomum [7] = experiment: Antihelmintic activity against rumen flukes assessed as mortality at 40 ug/ml after 2 hrs relative to control
Paramphistomum [8] = experiment: Antihelmintic activity against rumen flukes assessed as mortality at 80 ug/ml after 6 hrs relative to control

SMILES	mortality at 40 µg/mL (Paramphistomum [1]) [%]	mortality at 80 µg/mL (Paramphistomum [2]) [%]	mortality at 40 µg/mL (Paramphistomum [3]) [%]	mortality at 80 µg/mL (Paramphistomum [4]) [%]	mortality at 80 µg/mL (Paramphistomum [5]) [%]	mortality at 40 µg/mL (Paramphistomum [6]) [%]	mortality at 40 µg/mL (Paramphistomum [7]) [%]	mortality at 80 µg/mL (Paramphistomum [8]) [%]
COC(=O)Nc1nc2ccc(OCC(=O)N/N=C/c3ccco3)cc2s1	10	60	40	40	30	30	20	70
COC(=O)Nc1nc2ccc(OCC(=O)NNS(=O)(=O)c3ccc(C)cc3)cc2s1	10	30	30	20	20	20	10	40
CC(=O)Nc1nc2ccc(OCC3=NN(C(C)=O)C(c4ccc([N+](=O)[O-])cc4)O3)cc2s1 (stereo not given)	10	70	70	50	20	40	30	100
CC(=O)Nc1nc2ccc(OCC3=NN(C(C)=O)C(c4ccccc4)O3)cc2s1 (stereo not given)	0	10	0	0	0	0	0	10
COC(=O)NNC(=O)COc1ccc2nc(NC(=O)OC)sc2c1	10	70	40	40	30	30	20	80
COC(=O)Nc1nc2ccc(OCC(=O)NNS(=O)(=O)c3ccccc3)cc2s1	10	40	30	30	20	20	10	50
CC(=O)Nc1nc2ccc(OCC3=NN(C(C)=O)C(c4ccc(Cl)cc4)O3)cc2s1 (stereo not given)	20	80	60	50	20	50	40	100
COC(=O)Nc1nc2ccc(OCC(=O)N/N=C(\C)c3ccc(Br)cc3)cc2s1 (mixture of isomers)	10	30	10	20	20	10	10	30
COC(=O)Nc1nc2ccc(OCC(=O)N/N=C(\C)c3ccccc3)cc2s1 (mixture of isomers)	10	20	20	20	20	10	10	30
COC(=O)Nc1nc2ccc(OCC(=O)N/N=C/c3ccc(Cl)cc3)cc2s1 (mixture of isomers)	0	50	20	30	20	10	0	60
COC(=O)Nc1nc2ccc(OCC(=O)N/N=C(\C)c3ccc(C)cc3)cc2s1 (mixture of isomers)	10	20	10	20	20	10	10	20
COC(=O)Nc1nc2ccc(OCC(=O)N/N=C/c3ccc([N+](=O)[O-])cc3)cc2s1 (mixture of isomers)	10	20	10	20	20	10	10	20
COC(=O)Nc1nc2ccc(OCC(=O)N/N=C/c3ccccc3OC(=O)OC)cc2s1 (mixture of isomers)	10	20	10	20	10	10	10	20
COC(=O)Nc1nc2ccc(OCC(=O)N/N=C/c3ccccc3)cc2s1 (mixture of isomers)	10	20	20	20	10	10	10	40
COC(=O)Nc1nc2ccc(OCC(=O)N/N=C(\C)c3ccc(Cl)cc3)cc2s1 (mixture of isomers)	10	50	40	40	30	30	10	70
O=C(Nc1cc(Cl)cc(Cl)c1O)c1c(O)c(Cl)cc(Cl)c1Cl [OXYCLOZANIDE]	30	–	–	100	50	100	70	–

Reference: ChEMBL document CHEMBL3739361, “Design, facile synthesis and anthelmintic activity of new O-substituted 6-methoxybenzothiazole-2-carbamates” (2015)
